Results as given in patent publication US4332805A, “Decahydroquinolinol derivatives and methods of treating cardiac arrythmias or inducing local anaesthesia with them” (priority 1979, dated 1982).
Structures can show the parent of a compound that is named as a salt.

experiment: LAWSON test: protection against chloroform-induced ventricular fibrillation; assay type: in vivo, mice; conditions: Mus musculus, po, 0.5 h; female mice, intragastric, 30 minutes before chloroform; salts (hydrochloride); read-out: AD50 (dose protecting 50% of the animals against ventricular fibrillation)
Experimental: The arrhythmia was induced, in this test, by inhalation of chloroform until breathing stopped.
For each dose of the substance to be studied, batches of 10 female mice, each of about 20 g, were used. These mice had been fasting for 18 hours before the test. A batch of 10 animals was used as control group.
A dose of the compound to be studied was first administered by intragastric route except to the controls which only received the solvent used with the compound in question. Thirty minutes later, the animals were placed under a dome-shaped receptacle containing a high concentration of chloroform obtained by means of a strongly impregnated pad.
The animals were removed when totally asphyxiated (about 2 minutes later), the thorax was rapidly opened and the ventricular rhythm observed. The dose of the compound under study which protected 50% of the animals against ventricular fibrillation was then determined.
This protective dose is expressed as AD50 in mg/kg in the following Table. […]
Another comparative test was performed under the same conditions with
several compounds included within the scope of U.S. Pat. No. 3,882,129 at
the single dose of 100 mg/kg by intragastric route.
The following results were obtained which are expressed in percentage of protection obtained against the arrhythmic effect at the studied dose: […]

Compound	ED50
NC(=O)O[C@@H]1CCN(CCCOc2ccccc2)[C@H]2CCCC[C@H]12 (relative stereo) [hydrogen, 3, O, phenyl, axial, 4-Carbamoyloxy-1-(3-phenoxy-propyl)-trans-decahydroquinoline hydrochloride (axial form)]	> 100 mg/kg
NC(=O)O[C@@H]1CCN(CCOc2ccc(F)cc2)[C@H]2CCCC[C@H]12 (relative stereo) [hydrogen, 2, O, 4-fluoro-phenyl, axial, 4-Carbamoyloxy-1-[2-(4-fluoro-phenoxy)-ethyl]-trans-decahydroquinoline hydrochloride (axial form)]	> 100 mg/kg
NC(=O)O[C@H]1CCN(CCCOc2ccc(F)cc2)[C@H]2CCCC[C@H]12 (relative stereo) [4-Carbamoyloxy-1-[3-(4-fluoro-phenoxy)-propyl]-trans-decahydroquinoline hydrochloride (equatorial form)]	45 mg/kg
O=C(Nc1ccc(Br)cc1)O[C@H]1CCN(CCCOc2ccc(F)cc2)[C@H]2CCCC[C@H]12 (relative stereo) [4-[(4-Bromo-phenyl)-carbamoyloxy]-1-[3-(4-fluoro-phenoxy)-propyl]-trans-decahydroquinoline hydrochloride (equatorial form)]	120 mg/kg
NC(=O)O[C@@H]1CCN(CCCOc2ccc(Cl)cc2)[C@H]2CCCC[C@H]12 (relative stereo) [hydrogen, 3, O, 4-chloro-phenyl, axial, 4-Carbamoyloxy-1-[3-(4-chloro-phenoxy)-propyl]-trans-decahydroquinoline hydrochloride (axial form)]	> 100 mg/kg
COc1cc(C(C)=O)ccc1OCCCN1CC[C@@H](OC(N)=O)[C@H]2CCCC[C@@H]21 (relative stereo) [1-[3-(4-Acetyl-2-methoxy-phenoxy)-propyl]-4-carbamoyloxy-trans-decahydroquinoline hydrochloride (axial form)]	> 100 mg/kg
NC(=O)O[C@@H]1CCN(CCCOc2ccc(Br)cc2)[C@H]2CCCC[C@H]12 (relative stereo) [hydrogen, 3, O, 4-bromo-phenyl, axial, 1-[3-(4-Bromo-phenoxy)-propyl]-4-carbamoyloxy-trans-decahydroquinoline hydrochloride (axial form)]	65 mg/kg
NC(=O)O[C@@H]1CCN(CCOc2ccc3ccccc3c2)[C@H]2CCCC[C@H]12 (relative stereo) [hydrogen, 2, O, 2-naphthyl, axial, 4-Carbamoyloxy-1-[2-(2-naphthyloxy)-ethyl]-trans-decahydroquinoline hydrochloride (axial form)]	50 mg/kg
N#Cc1ccc(OCCCN2CC[C@@H](OC(N)=O)[C@H]3CCCC[C@@H]32)cc1 (relative stereo) [hydrogen, 3, O, 4-cyano-phenyl, axial, 4-Carbamoyloxy-1-[3-(4-cyano-phenoxy)-propyl]-trans-decahydroquinoline hydrochloride (axial form)]	30 mg/kg
CCNC(=O)O[C@@H]1CCN(CCCOc2ccc(F)cc2)[C@H]2CCCC[C@H]12 (relative stereo) [ethyl, 3, O, 4-fluoro-phenyl, axial, 4-(N-Ethylcarbamoyloxy)-1-[3-(4-fluoro-phenoxy)-propyl]-trans-decahydroquinoline hydrochloride (axial form)]	50 mg/kg
CCCCNC(=O)O[C@@H]1CCN(CCCOc2ccc(F)cc2)[C@H]2CCCC[C@H]12 (relative stereo) [n-butyl, 3, O, 4-fluoro-phenyl, axial, 4-(N-n-butylcarbamoyloxy)-1-[3-(4-fluoro-phenoxy)-propyl]-trans-decahydroquinoline hydrochloride (axial form)]	50 mg/kg
Cc1ccc(NC(=O)O[C@H]2CCN(CCCOc3ccc(F)cc3)[C@H]3CCCC[C@H]23)cc1Cl (relative stereo) [4-[(3-Chloro-4-methyl-phenyl)-carbamoyloxy]-1-[3-(4-fluoro-phenoxy)-propyl]-trans-decahydroquinoline hydrochloride (equatorial form)]	30 mg/kg
CCCNC(=O)O[C@@H]1CCN(CCCOc2ccc(F)cc2)[C@H]2CCCC[C@H]12 (relative stereo) [n-propyl, 3, O, 4-fluoro-phenyl, axial, 1-[3-(4-Fluoro-phenoxy)-propyl]-4-(N-n-propyl-carbamoyloxy)-trans-decahydroquinoline hydrochloride (axial form)]	80 mg/kg
NC(=O)O[C@@H]1CCN(CCOc2ccc(Br)cc2)[C@H]2CCCC[C@H]12 (relative stereo) [hydrogen, 2, O, 4-bromo-phenyl, axial, 1-[2-(4-Bromo-phenoxy)-ethyl]-4 carbamoyloxy-trans-decahydroquinoline hydrochloride (axial form)]	90 mg/kg
NC(=O)O[C@@H]1CCN(CCCSc2ccc(F)cc2)[C@H]2CCCC[C@H]12 (relative stereo) [hydrogen, 3, S, 4-fluoro-phenyl, axial, 4-Carbamoyloxy-1-[3-(4-fluoro-phenylthio)-propyl]-trans-decahydroquinoline hydrochloride (axial form)]	> 100 mg/kg
NC(=O)O[C@@H]1CCN(CCCOc2ccc3ccccc3c2)[C@H]2CCCC[C@H]12 (relative stereo) [hydrogen, 3, O, 2-naphthyl, axial, 4-Carbamoyloxy-1-[3-(2-naphthyloxy)-propyl]-trans-decahydroquinoline hydrochloride (axial form)]	> 100 mg/kg
Cc1ccc(NC(=O)O[C@@H]2CCN(CCCOc3ccc(F)cc3)[C@H]3CCCC[C@H]23)cc1Cl (relative stereo) [4-[3-(Chloro-4-methyl-phenyl)-carbamoyloxy]-1-[3-(4-fluoro-phenoxy)-propyl]-trans-decahydroquinoline hydrochloride (axial form)]	> 100 mg/kg
O=C(Nc1ccccc1)O[C@@H]1CCN(CCCOc2ccc(F)cc2)[C@H]2CCCC[C@H]12 (relative stereo) [phenyl, 3, O, 4-fluoro-phenyl, axial, 1-[3-(4-Fluoro-phenoxy)-propyl]-4-(N-phenylcarbamoyloxy)-trans-decahydroquinoline hydrochloride (axial form)]	> 100 mg/kg
CC(=O)c1ccc(OCCCN2CC[C@@H](OC(N)=O)[C@H]3CCCC[C@@H]32)cc1 (relative stereo) [hydrogen, 3, O, 4-acetyl-phenyl, axial, 1-[3-(4-Acetyl-phenoxy)-propyl]-4-carbamoyloxy-trans-decahydroquinoline hydrochloride (axial form)]	> 100 mg/kg
COc1cc(C(C)=O)ccc1OCCCN1CC[C@@H](OC(=O)Nc2ccc(Br)cc2)[C@H]2CCCC[C@@H]21 (relative stereo) [1-[3-(4-Acetyl-2-methoxy-phenoxy)-propyl]-4-[4-(bromo-phenyl)-carbamoyloxy]-trans-decahydroquinoline hydrochloride (axial form)]	> 100 mg/kg
NC(=O)O[C@@H]1CCN(CCOc2c(Cl)cccc2Cl)[C@H]2CCCC[C@H]12 (relative stereo) [4-Carbamoyloxy-1-[2-(2,6-dichloro-phenoxy)-ethyl]-trans-decahydroquinoline hydrochloride (axial form)]	50 mg/kg
O=C(Nc1ccc(Br)cc1)O[C@@H]1CCN(CCCOc2ccc(F)cc2)[C@H]2CCCC[C@H]12 (relative stereo) [4-[(4-Bromo-phenyl)-carbamoyloxy]-[1-3-(4-fluoro-phenoxy)-propyl]-trans-decahydroquinoline hydrochloride (axial form)]	150 mg/kg
COc1ccccc1OCCN1CC[C@@H](OC(N)=O)[C@H]2CCCC[C@@H]21 (relative stereo) [hydrogen, 2, O, 2-methoxy-phenyl, axial, 4-Carbamoyloxy-1-[2-(2-methoxy-phenoxy)-ethyl]-trans-decahydroquinoline hydrochloride (axial form)]	75 mg/kg
Cc1ccc(OCCCN2CC[C@@H](OC(N)=O)[C@H]3CCCC[C@@H]32)cc1 (relative stereo) [hydrogen, 3, O, 4-methyl-phenyl, axial, 4-Carbamoyloxy-1-[3-(4-methyl-phenoxy)-propyl]-trans-decahydroquinoline hydrochloride (axial form)]	> 100 mg/kg
NC(=O)O[C@@H]1CCN(CCOc2cccc3ccccc23)[C@H]2CCCC[C@H]12 (relative stereo) [hydrogen, 2, O, 1-naphthyl, axial, 4-Carbamoyloxy-1-[2-(1-naphthyloxy)-ethyl]-trans-decahydroquinoline hydrochloride (axial form)]	75 mg/kg
COc1ccc(OCCCN2CC[C@@H](OC(N)=O)[C@H]3CCCC[C@@H]32)cc1 (relative stereo) [hydrogen, 3, O, 4-methoxy-phenyl, axial, 4-Carbamoyloxy-1-[3-(4-methoxy-phenoxy)-propyl]-trans-decahydroquinoline hydrochloride (axial form)]	> 100 mg/kg

same assay, conditions: female mice, intragastric, 30 minutes before chloroform; salts (hydrochloride)

Compound	AD50 (dose protecting 50% of the animals against ventricular fibrillation)
CNC(=O)O[C@@H]1CCN(CCCOc2ccc(F)cc2)[C@H]2CCCC[C@H]12 (relative stereo) [methyl, 3, O, 4-fluoro-phenyl, axial, 1-[3-(4-Fluoro-phenoxy)-propyl]-4-(N-methylcarbamoyloxy)-trans-decahydroquinoline hydrochloride (axial form)]	55 mg/kg
